IC50 data for eleven compounds are collected here from US20260015350A1, “AZAQUINAZOLINE PAN-KRAS INHIBITORS” (Mirati Therapeutics, Inc., priority 2022, published 2026).

As usually defined, the IC50 is the concentration at which inhibition is half-maximal. Higher therefore signals lower potency.

The target of test [1] is T1, KRas^G12D (Homo sapiens, UniProt P01116, G12D).
T1 construct: Biotinylated KRas (corresponding to amino acids 1-169, produced at Accelegan Inc.); biotin (biotinylated); purchased Accelegan Inc
Description: KRas binding assay (TR-FRET tracer displacement), KRas G12D. Background: Time-resolved FRET reads energy transfer from a long-lived donor to a nearby acceptor.

The target of test [2] is T2, KRas^G12R (Homo sapiens, UniProt P01116, G12R).
T2 construct: Biotinylated KRas (corresponding to amino acids 1-169, produced at Accelegan Inc.); biotin (biotinylated); purchased Accelegan Inc
Description: KRas binding assay (TR-FRET tracer displacement), KRas G12R.

Test [3] concerns the target T3, KRas^G12V (Homo sapiens, UniProt P01116, G12V).
T3 construct: Biotinylated KRas (corresponding to amino acids 1-169, produced at Accelegan Inc.); biotin (biotinylated); purchased Accelegan Inc
Put plainly: KRas binding assay (TR-FRET tracer displacement), KRas G12V.

In test [4] the test system is KRas-mediated phosphorylation of ERK in AsPC-1 cells. Description: Inhibition of KRas-mediated phosphorylation of ERK (Cisbio HTRF pERK), AsPC-1 cells. The test is classed as cell-based. The conditions noted are these: Homo sapiens, ASPC1, AsPC-1 cells; HTRF pERK. A digest of the protocol: (§1)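 Min control wells contained 0.2 uM Trametinib, while test compounds ran as 10 doses (3-fold, top 10 uM; 0.8% DMSO final) on cells for 3 hrs. After 40 mins lysis at 4° C, lysates were probed with HTRF antibodies for 2 hrs at room temperature.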

Test [5] relates to KRas-mediated phosphorylation of ERK in H727 cells. Put plainly: Inhibition of KRas-mediated phosphorylation of ERK (Cisbio HTRF pERK), H727 cells. The conditions noted are these: Homo sapiens, NCI-H727, H727 cells; HTRF pERK. The test is classed as cell-based. A digest of the protocol: as §1

T2 sequence (P01116 1-169 isoform P01116-2 G12R): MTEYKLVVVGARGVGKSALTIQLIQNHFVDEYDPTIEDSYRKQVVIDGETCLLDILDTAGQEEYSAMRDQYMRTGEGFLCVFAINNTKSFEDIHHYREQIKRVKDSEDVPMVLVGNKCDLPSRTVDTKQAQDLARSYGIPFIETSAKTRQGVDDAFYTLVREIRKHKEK
T3 sequence (P01116 1-169 isoform P01116-2 G12V): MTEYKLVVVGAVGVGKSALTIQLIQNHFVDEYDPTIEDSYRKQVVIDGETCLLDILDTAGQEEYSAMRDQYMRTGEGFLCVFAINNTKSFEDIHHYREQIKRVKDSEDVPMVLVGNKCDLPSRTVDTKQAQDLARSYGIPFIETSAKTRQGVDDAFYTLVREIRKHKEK
T1 sequence (P01116 1-169 isoform P01116-2 G12D): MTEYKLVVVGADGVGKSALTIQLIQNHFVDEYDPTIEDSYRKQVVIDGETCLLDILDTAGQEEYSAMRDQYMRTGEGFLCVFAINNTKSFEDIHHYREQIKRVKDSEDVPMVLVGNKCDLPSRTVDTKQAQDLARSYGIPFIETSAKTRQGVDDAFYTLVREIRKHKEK

`CCc1c(F)ccc2cc(O)cc(-c3ncc4c(N5Cc6n[nH]c(C(N)=O)c6C5)nc(OC[C@@]56CCCN5C[C@H](F)C6)nc4c3F)c12` [Example 588, 5-(7-(8-ethyl-7-fluoro-3-hydroxynaphthalen-1-yl)-8-fluoro-2-(((2R,7aS)-2-fluorotetrahydro-1H-pyrrolizin-7a(5H)-yl)methoxy)pyrido[4,3-d]pyrimidin-4-yl)-2,4,5,6-tetrahydropyrrolo[3,4-c]pyrazole-3-carboxamide]: the IC50 was 1780 nM in test [1]; 621 nM in test [2]; 314 nM in test [3]; > 10000 nM in test [4]; > 10000 nM in test [5].

Take `CCc1c(F)ccc2cc(O)cc(-c3ncc4c(N5CCCC6(CC=CCO6)C5)nc(OC[C@@]56CCCN5C[C@H](F)C6)nc4c3F)c12` (stereo partly drawn) [Example 589, 5-ethyl-6-fluoro-4-(8-fluoro-2-(((2R,7aS)-2-fluorotetrahydro-1H-pyrrolizin-7a(5H)-yl)methoxy)-4-(1-oxa-8-azaspiro[5.5]undec-3-en-8-yl)pyrido[4,3-d]pyrimidin-7-yl)naphthalen-2-ol]: the IC50 in test [1] amounted to 38 nM; in test [2] it was 12 nM; in test [3], 16 nM; in test [4] it was 1540 nM; in test [5], 731 nM.

Turning to `CCc1c(F)ccc2cc(O)cc(-c3ncc4c(N5CCC(CC6CCOC6)C5)nc(OC[C@@]56CCCN5C[C@H](F)C6)nc4c3F)c12` (stereo partly drawn) [Example 596, 5-ethyl-6-fluoro-4-(8-fluoro-2-(((2R,7aS)-2-fluorohexahydro-1H-pyrrolizin-7a-yl)methoxy)-4-(3-((tetrahydrofuran-3-yl)methyl)pyrrolidin-1-yl)pyrido[4,3-d]pyrimidin-7-yl)naphthalen-2-ol], the IC50 in test [1] was 805 nM; in test [2], 434 nM; in test [3], 94 nM; in test [4], > 10000 nM; in test [5], 2450 nM.

For the compound `CCc1c(F)ccc2cc(O)cc(-c3ncc4c(N5CCC(CC6CCCO6)C5)nc(OC[C@@]56CCCN5C[C@H](F)C6)nc4c3F)c12` (stereo partly drawn) [Example 597, 5-ethyl-6-fluoro-4-(8-fluoro-2-(((2R,7aS)-2-fluorotetrahydro-1H-pyrrolizin-7a(5H)-yl)methoxy)-4-(3-((tetrahydrofuran-2-yl)methyl)pyrrolidin-1-yl)pyrido[4,3-d]pyrimidin-7-yl)naphthalen-2-ol], the IC50 in test [1] is 867 nM; in test [2] it was 194 nM; in test [3], 82 nM; in test [4], 4800 nM; in test [5], 2360 nM.

On to `CCc1c(F)ccc2cc(O)cc(-c3ncc4c(N5CCC6(CNC(=O)OC6)C5)nc(OC[C@@]56CCCN5C[C@H](F)C6)nc4c3F)c12` (stereo partly drawn) [Example 598, 2-(7-(8-ethyl-7-fluoro-3-hydroxynaphthalen-1-yl)-8-fluoro-2-(((2R,7aS)-2-fluorotetrahydro-1H-pyrrolizin-7a(5H)-yl)methoxy)pyrido[4,3-d]pyrimidin-4-yl)-7-oxa-2,9-diazaspiro[4.5]decan-8-one], for which the IC50 in test [1] was 820 nM; in test [2], 66 nM; in test [3] it was 84 nM; in test [4] it was > 10000 nM; in test [5], > 10000 nM.

For `CCc1c(F)ccc2cc(O)cc(-c3ncc4c(N5C6CNC(=O)CC5COC6)nc(OC[C@@]56CCCN5C[C@H](F)C6)nc4c3F)c12` (stereo partly drawn) [Example 599, 10-(7-(8-ethyl-7-fluoro-3-hydroxynaphthalen-1-yl)-8-fluoro-2-(((2R,7aS)-2-fluorohexahydro-1H-pyrrolizin-7a-yl)methoxy)pyrido[4,3-d]pyrimidin-4-yl)-8-oxa-3,10-diazabicyclo[4.3.1]decan-4-one], the IC50 in test [1] is 2120 nM; in test [2], 23 nM; in test [3] it was 85 nM; in test [4] it was > 10000 nM; in test [5] it was > 10000 nM.

For `CCc1c(F)ccc2cc(O)cc(-c3ncc4c(N5CCC6(CC5)OCCC6O)nc(OC[C@@]56CCCN5C[C@H](F)C6)nc4c3F)c12` (stereo partly drawn) [Example 600, 8-(7-(8-ethyl-7-fluoro-3-hydroxynaphthalen-1-yl)-8-fluoro-2-(((2R,7aS)-2-fluorotetrahydro-1H-pyrrolizin-7a(5H)-yl)methoxy)pyrido[4,3-d]pyrimidin-4-yl)-1-oxa-8-azaspiro[4.5]decan-4-ol], the IC50 in test [1] was 5040 nM; in test [2], 886 nM; in test [3], 880 nM; in test [4] it was > 10000 nM; in test [5], > 10000 nM.

Regarding `CCc1c(F)ccc2cc(O)cc(-c3ncc4c(N5CCOC[C@@](C)(COC)C5)nc(OC[C@@]56CCCN5C[C@H](F)C6)nc4c3F)c12` [Example 602, 5-ethyl-6-fluoro-4-(8-fluoro-2-(((2R,7aS)-2-fluorotetrahydro-1H-pyrrolizin-7a(5H)-yl)methoxy)-4-((R)-6-(methoxymethyl)-6-methyl-1,4-oxazepan-4-yl)pyrido[4,3-d]pyrimidin-7-yl)naphthalen-2-ol], the IC50 in test [1] was 484 nM; in test [2], 161 nM; in test [3], 243 nM; in test [4] it was 5460 nM; in test [5], 3870 nM.

As for `CCc1c(F)ccc2cc(O)cc(-c3ncc4c(N5CCC6(CC5)CC[S+]6[O-])nc(OC[C@@]56CCCN5C[C@H](F)C6)nc4c3F)c12` (stereo partly drawn) [Example 603, 7-(7-(8-ethyl-7-fluoro-3-hydroxynaphthalen-1-yl)-8-fluoro-2-(((2R,7aS)-2-fluorotetrahydro-1H-pyrrolizin-7a(5H)-yl)methoxy)pyrido[4,3-d]pyrimidin-4-yl)-1-thia-7-azaspiro[3.5]nonane 1-oxide], the IC50 in test [1] was 1630 nM; in test [2], 453 nM; in test [3] it was 590 nM; in test [4], > 10000 nM; in test [5], > 10000 nM.

Take `CCc1c(F)ccc2cc(O)cc(-c3ncc4c(N5C[C@@H]6[C@@H](CC#N)NC(=O)[C@@H]6C5)nc(OC[C@@]56CCCN5C[C@H](F)C6)nc4c3F)c12` [Example 606, 2-((1R,3aS,6aR)-5-(7-(8-ethyl-7-fluoro-3-hydroxynaphthalen-1-yl)-8-fluoro-2-(((2R,7aS)-2-fluorohexahydro-1H-pyrrolizin-7a-yl)methoxy)pyrido[4,3-d]pyrimidin-4-yl)-3-oxooctahydropyrrolo[3,4-c]pyrrol-1-yl) acetonitrile]: the IC50 in test [1] is 26 nM; in test [2] it was 71 nM; in test [3], 43 nM; in test [4] it was > 10000 nM; in test [5] it was > 10000 nM.

Turning to `CCc1c(F)ccc2cc(O)cc(-c3ncc4c(N5CCC(Cc6ccn(C)n6)C5)nc(OC[C@@]56CCCN5C[C@H](F)C6)nc4c3F)c12` (stereo partly drawn) [Example 611, 5-ethyl-6-fluoro-4-(8-fluoro-2-(((2R,7aS)-2-fluorotetrahydro-1H-pyrrolizin-7a(5H)-yl)methoxy)-4-(3-((1-methyl-1H-pyrazol-3-yl)methyl)pyrrolidin-1-yl)pyrido[4,3-d]pyrimidin-7-yl)naphthalen-2-ol], the IC50 in test [1] was found to be 1530 nM; in test [2], 127 nM; in test [3], 121 nM; in test [4] it was 4470 nM; in test [5], 1950 nM.
